The results in this text go back to patent US20040143025A1, “Carbon monoxide generating compunds for treatment of vascular, inflammatory and immune disorders” (priority 2002, published 2004).

In one series the test system is rat liver. More on the design: species or system Sprague Dawley (SD) rats. An excerpt:
Animals. Male Sprague Dawley (SD) rats weighing between 300-350 g (Harlan Sprague Dawley, Indianapolis, Ind.) were used. Animals were fed standard rodent chow and water and libitum and cared according to guidelines approved by the American Association of Laboratory Animal Care.
Isolated perfusion liver apparatus. An isolated perfusion liver apparatus was used, as described in Amersi et al., supra, and Maulik et al., Circulation 94:398-406 (1996). In brief, syngeneic rat blood, obtained for each experiment from four donor animals, was diluted to a hematocrit of 15% with Krebs Ringer Bicarbonate Buffer (mM: NaCl 118, KH2POF 1, MgSO4 0.9, CaCl2 2.5, dextrose 11.1, and NaHCO2 25), and maintained at pH of 7.4. The perfusate was pumped from a heated reservoir that warmed the perfusate to 37° C. through silastic tubing oxygenator connected to a flow meter that measured portal vein blood flow (Cole Palmer Instruments, Chicago, Ill.). Portal pressure was kept constant via a pressure monometer connected to a T fitting in the portal vein canula. […] During the experiment, pH, temperature and oxygenation were kept constant.
Ex vivo cold ischemia model. SD rats underwent isoflourane anesthesia and systemic heparinization. […] The livers were then stored for 24 h at 4° C. in UW solution, followed by ex-vivo reperfusion for 1-2 h on an isolated perfusion liver apparatus. Portal vein blood flow, pressure, and bile production were recorded every 30 min. Blood samples were collected at 30 min intervals and serum glutamic oxaloacetic transaminase (sGOT) levels were measured using an autoanalyzer from ANTECH Diagnostics (Irvine, Calif.). At the conclusion of experiment, a portion of the liver was snap frozen for mRNA extraction/Western blot analyses; the remaining samples were fixed in formalin for H&E staining.
The role of CO—HO-1 pathway in hepatic I/R injury was studied in five major treatment groups (n=4.8 rats/group). In Group 1, the extent of I/R injury was contrasted between livers perfused ex-vivo with blood saturated with CO (300 parts per million [ppm]; 0.03% balanced air) vs. air alone (21% O2). As NO may enhance HO-1 expression (Brouard et al., supra), we then investigated a link between the two gaseous molecules in Group 2 livers, which were perfused with CO supplemented with 25 mM NG-nitro-L-arginine methyl ester hydrochloride (L-NAME; Sigma Chemicals, St. Louis, Mo.), an inducible NO inhibitor. […] To analyze as to whether exogenous CO can substitute for HO-1 in preventing I/R insult, Group 4 rats were treated 24 h prior to liver procurement with ZnPP)(1.5 mg/kg/i.p; Porphyrin Products, Logan Utah), an HO-1 inhibitor, followed by ex vivo perfusion with CO. […] Brouard et al., supra. Therefore, Group 5 rats were pre-treated 60 min before harvest with p38 MAPK inhibitor, SB203580, a pyridinyl imidazol (25 mg/kg orally; Sigma). In addition, prior to reperfursion with CO, SB203580 (20 μM) was added to the perfusate.

Another series deals with Myeloperoxidase (MPO). The series is described as follows: Myeloperoxidase (MPO) assay, neutrophil activity in liver tissue. The arrangement: species or system Sprague Dawley (SD) rats. As to conditions: liver tissue at conclusion of 2 h reperfusion with CO. The method, then: Myeloperoxidase (MPO) assay. MPO is a naturally occurring constituent of neutrophils and is used as a marker for neutrophil infiltration. Frozen tissue samples were thawed and suspended in an iced solution of 0.5% hexadecyltrimethyl-ammonium (Sigma) and 50 mMol potassium phosphate buffer solution (Sigma) with pH adjusted to 5. Samples are homogenized for 30 sec, centrifuged at 15,000 rpm for 15 min at 4° C. 0.1 ml of the supernatant was then mixed in solution of hydrogen peroxide-sodium acetate and tetramethyl benzidine (Sigma). The change in absorbance at 460 run was measured with a Beckman DU spectrophotometer (Beckman Institute, Fullerton, Calif.). The quantity of enzyme degrading 1 μMol peroxide per minute at 25° C. per gram of tissue was defined as one unit of MPO activity.

In series [1] the test system is LEW rats transplanted with DA livers. The series is described as follows: Allogeneic orthotopic liver transplant (OLT) model: survival, histology, sGOT. It is filed as in vivo, rat. The method, then: Ad-HO-1 transduction in OLT model. Male Dark-Agouti (DA; RT1^3) and Lewis (LEW; RT1′) rats of 10-16 weeks of age were purchased from Harlan Sprague Dawley, Inc. (San Diego, Calif.), and maintained under conditions approved by the UCLA Chancellor's Animal Research Committee (CARC). All animals were housed in microisolator cages in a virus free facility and fed laboratory chow ad libitum. Orthotopic liver transplants were performed between DA donors and LEW rat recipients, as described previously. Amersi et al., supra; Kato et al., Am. J. Transplant 1:121-28 (2001). Ex-vivo gene transfer into liver grafts was performed during cold preservation (4° C.) via perfusion of the portal vein with 2 ml of cold lactated Ringer's solution containing 5×10^10 pfu (plaque-forming unit) of Ad-HO-1. Control grafts were perfused with 5×10^10 pfu of Ad-β-gal. Animals were followed for survival. Separate groups of recipients were sacrificed at day 3, 7 and 10 post-transplant, OLTs were harvested for histological evaluation, whereas blood samples were collected for measurement of sGOT levels.
Methylene chloride treatment in OLT model To investigate whether CO represents a functional downstream HO-1 mediator in this system, methylene chloride was used as a carbon monoxide generator. As indicated above, the metabolism of MC is known to result in the exclusive production of CO2 and CO. Gargas et al., supra. LEW rats transplanted with DA livers were fed with methylene chloride (500 mg/kg) 2 hr prior to the transplant, followed by a 2-week post-transplant course (500 mg/kg/day). The blood CoHb levels in experimental animals were measured at day 0, 5, and 10. Animal survival was screened and OLTs were analyzed histologically.
Histology. Liver allografts were harvested at day 3, 7 and 10 post-transplant. The tissue was sliced into small pieces, preserved in 10% neutral-buffered formalin, cut into 5-μm section, and stained with hematoxylin and eosin (H&E) by standard methods.

Setting [2] is: 24 h cold storage, 2 h reperfusion, CO 300 ppm vs air alone.

“Also recorded” adds a separate entry of the source. Where two headings read alike, the source gives them in different places.

As to `[C-]#[O+]` [CO, carbon monoxide], in the series on rat liver (setting [2]), the bile production result is recorded as “significantly more bile” and the portal vein resistance result is recorded as “significantly decreased”. Besides, the sGOT levels in the series with rat liver (CO 300 ppm alone, 2 h reperfusion) is given as 163±27 IU/L. In the series with rat liver (CO 300 ppm, 1 h reperfusion), the sGOT levels was found to be 79±14 IU/L. In the series on Myeloperoxidase (MPO), this molecule returned an MPO activity of 1.3±0.2 U/mg.

Turning to `ClCCl` [methylene chloride], in series [1] (OLT by day 10 post-transplant), the “hepatic parenchyma viable / preserved” value is on record as “more than 80%” and the “histological grade of rejection” value is “mild to moderate rejection”. Besides, in series [1] (allogeneic OLT), the “recipients/livers surviving >120 days” value was “two out of seven”. Besides, the “mean survival time [MST]±SD” value in series [1] (allogeneic OLT, vectors 5×10^10 pfu ex vivo perfusion, methylene chloride 500 mg/kg/day × 14 days) was more than 47 ± 46 days. The “rat recipients surviving >3 weeks” value in series [1] (daily feedings with methylene chloride alone) is on record as “ca. 50%”. The tolerability of regimen entry in series [1] (methylene chloride 500 mg/kg/day × 14 days, OLT recipients) was “well tolerated and no side effects were noted; also recorded: well tolerated”. Moreover, the “Mean (days) recipient survival” value in series [1] (treatment protocol as in Table 1) is recorded as more than 47 days.
